Test results as given in patent US8802162B2, “L-citrulline for treating endothelial dysfunction and erectile dysfunction” (Androsystems S.R.L., priority 2008, dated 2014).

Tests used:
[1] = Urinary excretion of cGMP, randomized prospective study in erectile dysfunction patients; format: in vivo; conditions: for Urinary excretion of cGMP, baseline: before administration; for Urinary excretion of cGMP, after administration: oral, L-citrulline 6 grams/day or L-arginine 3 grams/day, 7 days after beginning of administration
Method: (§1) The effectiveness of the administration of L-citrulline in the treatment of erectile dysfunction has been verified by conducting a randomized prospective study on 20 patients, during which L-citrulline was administered orally with a dosage of 6 grams/day, in two separate 3-gram doses, to patients affected by erectile dysfunction.
(§2) The effects of the administration were then tested at the biochemical level by studying the following parameters:
4. urinary excretion of cGMP.
(§3) The data related to the above cited biochemical parameters were acquired for patients subjected to the test 7 days after the beginning of the administration of the drug and are shown below in Table 1, Table 2, Table 3 and Table 4.

[2] = Plasma levels of L-arginine after oral administration, randomized prospective study in erectile dysfunction patients; format: in vivo; conditions: in words
Method: as §1, §2, §3

[3] = Urinary excretion of nitrates, randomized prospective study in erectile dysfunction patients; format: in vivo; conditions: for Urinary excretion of nitrates, baseline: before administration; for Urinary excretion of nitrates, after administration: oral, L-citrulline 6 grams/day or L-arginine 3 grams/day, 7 days after beginning of administration
Method: as §1, §2
3. urinary excretion of nitrates;
as §3

[4] = system: erectile dysfunction; test: Erectile function assessment card (IIF-5 questionnaire); format: in vivo, patients; conditions: oral 6 grams/day, in words
Method: as §1
(§4) Moreover, the effects at the clinical level were also tested by administering the “Erectile function assessment card” (IIF-5 questionnaire) to the patients and by measuring flow-mediated vasodilation of the cavernous arteries before and after therapy.

[5] = system: cavernous arteries; test: Flow-mediated vasodilation of the cavernous arteries before and after therapy; format: in vivo, patients; conditions: oral 6 grams/day, before vs after therapy, in words
Method: as §1, §4

[6] = Blood L-arginine/ADMA ratio, randomized prospective study in erectile dysfunction patients; format: in vivo
Method: as §1, §2, §3

Structure (SMILES)	Urinary excretion of cGMP, baseline [1] [nmol/mmol creatinine]	Excretion of cGMP with respect to administration of L-arginine ([1]; oral administration, in words)	Urinary excretion of cGMP, after administration [1] [nmol/mmol creatinine]	Plasma half-life of L-arginine with respect to administration of L-arginine [2]	Plasma levels of arginine with respect to administration of L-arginine [2]	Urinary excretion of nitrates, baseline [3] [nmol/mmol creatinine]	Excretion of nitrates with respect to administration of L-arginine ([3]; oral administration, in words)	Urinary excretion of nitrates, after administration [3] [nmol/mmol creatinine]	IIF-5 questionnaire, components related to achieving and maintaining erection [4]	Increase in flow-mediated vasodilation at the level of the cavernous arteries [5]	L-arginine/ADMA ratio, baseline ([6]; baseline, before administration)	L-arginine/ADMA ratio, after administration ([6]; oral, L-citrulline 6 grams/day or L-arginine 3 grams/day, 7 days after beginning of administration)
NC(=O)NCCC[C@H](N)C(=O)O [L-citrulline]	40 ± 2.8	higher excretion	55 ± 3.8	statistically longer	statistically higher	89 ± 9	higher excretion	133 ± 16	leads to a modification of the IIF-5 questionnaire	statistically higher increase	183 ± 8	290 ± 15
N=C(N)NCCC[C@H](N)C(=O)O [L-arginine, reference compound]	38 ± 3.1	–	39 ± 4.5	–	–	91 ± 10	–	93 ± 12	–	–	–	–
